# The supplement of paper PMC10307832
# Columns and labels:
# Assay in all cases: relative viability (nuclei count vs DMSO), 5 days (fraction); higher = more cells survive
# NCI-H650 = tested on: NCI-H650
# Summary of the method: (§1)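 After 5 days of treatment, lung cancer cells in 1536-well plates were fixed and stained in a single step (final 0.05% Triton X-100, 1% formaldehyde, 1 ug/ml Hoechst) and their nuclei counted on 4× images. Treatment had been applied by pin tool the day after seeding as one drug alone or as a fixed anchor-drug dose with five library-drug doses (not always all listed) in √10 steps. Relative viability is the nuclei count of treated wells divided by that of vehicle wells, and values are medians of duplicate plates.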
# NCI-H2085 = tested on: NCI-H2085
# Summary of the method: as §1
# NCI-H1651 = tested on: NCI-H1651
# Summary of the method: as §1
# HCC-366 = tested on: HCC-366
# Summary of the method: as §1
# COR-L23 = tested on: COR-L23
# Summary of the method: as §1
# LU99A = tested on: LU99A
# Summary of the method: as §1
# NCI-H322M = tested on: NCI-H322M
# Summary of the method: as §1
# HCC-78 = tested on: HCC-78
# Summary of the method: as §1
# HARA = tested on: HARA
# Summary of the method: as §1
# NCI-H460 = tested on: NCI-H460
# Summary of the method: as §1
# NCI-H1793 = tested on: NCI-H1793
# Summary of the method: as §1
# NCI-H2087 = tested on: NCI-H2087
# Summary of the method: as §1
# NCI-H358 = tested on: NCI-H358
# Summary of the method: as §1
# 201T = tested on: 201T
# Summary of the method: as §1
# NCI-H1755 = tested on: NCI-H1755
# Summary of the method: as §1
# NCI-H3122 = tested on: NCI-H3122
# Summary of the method: as §1
# SK-LU-1 = tested on: SK-LU-1
# Summary of the method: as §1
# NCI-H23 = tested on: NCI-H23
# Summary of the method: as §1
# H3255 = tested on: H3255
# Summary of the method: as §1
# PC-3 [JPC-3] = tested on: PC-3 [JPC-3]
# Summary of the method: as §1
# NCI-H596 = tested on: NCI-H596
# Summary of the method: as §1
structure (smiles),measurement,setting,value
CN1CCN(CCOc2cc(OC3CCOCC3)c3c(Nc4c(Cl)ccc5c4OCO5)ncnc3c2)CC1 [Saracatinib] + C[C@]1(O)C[C@@H](c2nc(-c3ccc4ccc(-c5ccccc5)nc4c3)c3c(N)nccn32)C1 [Linsitinib] (partner 1 µM),relative viability,NCI-H650; first compound 0.02 µM,0.94
same,relative viability,NCI-H650; first compound 0.2 µM,0.885
same,relative viability,NCI-H650; first compound 0.6325 µM,0.838
same,relative viability,NCI-H650; first compound 2 µM,0.98
same,relative viability,NCI-H2085; first compound 0.02 µM,0.952
same,relative viability,NCI-H2085; first compound 0.2 µM,0.901
same,relative viability,NCI-H2085; first compound 0.6325 µM,0.881
same,relative viability,NCI-H2085; first compound 2 µM,0.898
same,relative viability,NCI-H1651; first compound 0.02 µM,0.944
same,relative viability,NCI-H1651; first compound 0.2 µM,0.661
same,relative viability,NCI-H1651; first compound 0.6325 µM,0.807
same,relative viability,NCI-H1651; first compound 2 µM,0.67
same,relative viability,HCC-366; first compound 0.02 µM,0.607
same,relative viability,HCC-366; first compound 0.6325 µM,0.283
same,relative viability,HCC-366; first compound 2 µM,0.13
same,relative viability,COR-L23; first compound 0.02 µM,0.86
same,relative viability,COR-L23; first compound 0.2 µM,0.558
same,relative viability,COR-L23; first compound 0.6325 µM,0.789
same,relative viability,COR-L23; first compound 2 µM,0.584
same,relative viability,LU99A; first compound 0.02 µM,0.575
same,relative viability,LU99A; first compound 0.2 µM,0.372
same,relative viability,LU99A; first compound 0.6325 µM,0.465
same,relative viability,LU99A; first compound 2 µM,0.411
same,relative viability,NCI-H322M; first compound 0.02 µM,0.999
same,relative viability,NCI-H322M; first compound 0.2 µM,0.962
same,relative viability,NCI-H322M; first compound 0.6325 µM,0.924
same,relative viability,NCI-H322M; first compound 2 µM,0.569
same,relative viability,HCC-78; first compound 0.02 µM,0.52
same,relative viability,HCC-78; first compound 0.2 µM,0.505
same,relative viability,HCC-78; first compound 0.6325 µM,0.753
same,relative viability,HCC-78; first compound 2 µM,0.497
same,relative viability,HARA; first compound 0.02 µM,0.917
same,relative viability,HARA; first compound 0.6325 µM,0.787
same,relative viability,HARA; first compound 2 µM,0.629
same,relative viability,NCI-H460; first compound 0.02 µM,0.716
same,relative viability,NCI-H460; first compound 0.2 µM,0.664
same,relative viability,NCI-H460; first compound 0.6325 µM,0.329
same,relative viability,NCI-H460; first compound 2 µM,0.181
same,relative viability,NCI-H1793; first compound 0.02 µM,0.876
same,relative viability,NCI-H1793; first compound 0.2 µM,0.447
same,relative viability,NCI-H1793; first compound 0.6325 µM,0.993
same,relative viability,NCI-H1793; first compound 2 µM,0.783
same,relative viability,NCI-H2087; first compound 0.02 µM,1.11
same,relative viability,NCI-H2087; first compound 0.2 µM,0.947
same,relative viability,NCI-H2087; first compound 0.6325 µM,1.2
same,relative viability,NCI-H2087; first compound 2 µM,1.12
same,relative viability,NCI-H358; first compound 0.02 µM,0.813
same,relative viability,NCI-H358; first compound 0.2 µM,0.51
same,relative viability,NCI-H358; first compound 0.6325 µM,0.403
same,relative viability,NCI-H358; first compound 2 µM,0.279
same,relative viability,201T; first compound 0.02 µM,1.05
same,relative viability,201T; first compound 0.2 µM,0.927
same,relative viability,201T; first compound 0.6325 µM,0.91
same,relative viability,201T; first compound 2 µM,0.809
same,relative viability,NCI-H1755; first compound 0.02 µM,1
same,relative viability,NCI-H1755; first compound 0.2 µM,0.707
same,relative viability,NCI-H1755; first compound 0.6325 µM,0.95
same,relative viability,NCI-H1755; first compound 2 µM,0.896
same,relative viability,NCI-H3122; first compound 0.02 µM,1.05
same,relative viability,NCI-H3122; first compound 0.6325 µM,0.842
same,relative viability,NCI-H3122; first compound 2 µM,0.767
same,relative viability,SK-LU-1; first compound 0.02 µM,0.92
same,relative viability,SK-LU-1; first compound 0.2 µM,0.752
same,relative viability,SK-LU-1; first compound 0.6325 µM,0.639
same,relative viability,SK-LU-1; first compound 2 µM,0.374
same,relative viability,NCI-H23; first compound 0.02 µM,0.58
same,relative viability,NCI-H23; first compound 0.6325 µM,0.558
same,relative viability,NCI-H23; first compound 2 µM,0.466
same,relative viability,H3255; first compound 0.02 µM,0.994
same,relative viability,H3255; first compound 0.2 µM,0.986
same,relative viability,H3255; first compound 0.6325 µM,0.647
same,relative viability,H3255; first compound 2 µM,0.233
same,relative viability,PC-3 [JPC-3]; first compound 0.02 µM,0.961
same,relative viability,PC-3 [JPC-3]; first compound 0.2 µM,0.891
same,relative viability,PC-3 [JPC-3]; first compound 0.6325 µM,0.875
same,relative viability,PC-3 [JPC-3]; first compound 2 µM,0.583
same,relative viability,NCI-H596; first compound 0.02 µM,1.01
same,relative viability,NCI-H596; first compound 0.2 µM,0.85
same,relative viability,NCI-H596; first compound 0.6325 µM,0.877
same,relative viability,NCI-H596; first compound 2 µM,0.737
CN1CCN(CCOc2cc(OC3CCOCC3)c3c(Nc4c(Cl)ccc5c4OCO5)ncnc3c2)CC1 [Saracatinib] + Cc1nc(NC(=O)N2CCC[C@H]2C(N)=O)sc1-c1ccnc(C(C)(C)C(F)(F)F)c1 [Alpelisib] (partner 2 µM),relative viability,NCI-H650; first compound 0.02 µM,1.14
same,relative viability,NCI-H650; first compound 0.2 µM,0.814
same,relative viability,NCI-H650; first compound 0.6325 µM,1.21
same,relative viability,NCI-H650; first compound 2 µM,1.13
same,relative viability,NCI-H2085; first compound 0.02 µM,0.957
same,relative viability,NCI-H2085; first compound 0.2 µM,0.85
same,relative viability,NCI-H2085; first compound 0.6325 µM,0.91
same,relative viability,NCI-H2085; first compound 2 µM,0.888
same,relative viability,NCI-H1651; first compound 0.02 µM,1.02
same,relative viability,NCI-H1651; first compound 0.2 µM,0.729
same,relative viability,NCI-H1651; first compound 0.6325 µM,0.913
same,relative viability,NCI-H1651; first compound 2 µM,0.804
same,relative viability,HCC-366; first compound 0.02 µM,0.429
same,relative viability,HCC-366; first compound 0.6325 µM,0.272
same,relative viability,HCC-366; first compound 2 µM,0.152
same,relative viability,COR-L23; first compound 0.02 µM,0.755
same,relative viability,COR-L23; first compound 0.2 µM,0.621
same,relative viability,COR-L23; first compound 0.6325 µM,0.591
same,relative viability,COR-L23; first compound 2 µM,0.603
same,relative viability,LU99A; first compound 0.02 µM,0.568
same,relative viability,LU99A; first compound 0.2 µM,0.371
same,relative viability,LU99A; first compound 0.6325 µM,0.513
same,relative viability,LU99A; first compound 2 µM,0.417
same,relative viability,NCI-H322M; first compound 0.02 µM,0.761
same,relative viability,NCI-H322M; first compound 0.2 µM,0.876
same,relative viability,NCI-H322M; first compound 0.6325 µM,0.822
same,relative viability,NCI-H322M; first compound 2 µM,0.639
same,relative viability,HCC-78; first compound 0.02 µM,0.29
same,relative viability,HCC-78; first compound 0.2 µM,0.328
same,relative viability,HCC-78; first compound 0.6325 µM,0.479
same,relative viability,HCC-78; first compound 2 µM,0.323
same,relative viability,HARA; first compound 0.02 µM,0.904
same,relative viability,HARA; first compound 0.6325 µM,0.707
same,relative viability,HARA; first compound 2 µM,0.513
same,relative viability,NCI-H460; first compound 0.02 µM,0.574
same,relative viability,NCI-H460; first compound 0.2 µM,0.347
same,relative viability,NCI-H460; first compound 0.6325 µM,0.289
same,relative viability,NCI-H460; first compound 2 µM,0.175
same,relative viability,NCI-H1793; first compound 0.02 µM,0.722
same,relative viability,NCI-H1793; first compound 0.2 µM,0.75
same,relative viability,NCI-H1793; first compound 0.6325 µM,0.793
same,relative viability,NCI-H1793; first compound 2 µM,0.74
same,relative viability,NCI-H2087; first compound 0.02 µM,1.13
same,relative viability,NCI-H2087; first compound 0.2 µM,0.934
same,relative viability,NCI-H2087; first compound 0.6325 µM,1.41
same,relative viability,NCI-H2087; first compound 2 µM,1.04
same,relative viability,NCI-H358; first compound 0.02 µM,0.839
same,relative viability,NCI-H358; first compound 0.2 µM,0.881
same,relative viability,NCI-H358; first compound 0.6325 µM,0.514
same,relative viability,NCI-H358; first compound 2 µM,0.448
same,relative viability,201T; first compound 0.02 µM,1.09
same,relative viability,201T; first compound 0.2 µM,0.865
same,relative viability,201T; first compound 0.6325 µM,0.856
same,relative viability,201T; first compound 2 µM,0.772
same,relative viability,NCI-H1755; first compound 0.02 µM,0.928
same,relative viability,NCI-H1755; first compound 0.2 µM,0.709
same,relative viability,NCI-H1755; first compound 0.6325 µM,0.864
same,relative viability,NCI-H1755; first compound 2 µM,0.712
same,relative viability,NCI-H3122; first compound 0.02 µM,0.822
same,relative viability,NCI-H3122; first compound 0.6325 µM,0.664
same,relative viability,NCI-H3122; first compound 2 µM,0.46
same,relative viability,SK-LU-1; first compound 0.02 µM,0.634
same,relative viability,SK-LU-1; first compound 0.2 µM,0.673
same,relative viability,SK-LU-1; first compound 0.6325 µM,0.44
same,relative viability,SK-LU-1; first compound 2 µM,0.297
same,relative viability,NCI-H23; first compound 0.02 µM,0.616
same,relative viability,NCI-H23; first compound 0.6325 µM,0.752
same,relative viability,NCI-H23; first compound 2 µM,0.526
same,relative viability,H3255; first compound 0.02 µM,0.624
same,relative viability,H3255; first compound 0.2 µM,0.556
same,relative viability,H3255; first compound 0.6325 µM,0.366
same,relative viability,H3255; first compound 2 µM,0.166
same,relative viability,PC-3 [JPC-3]; first compound 0.02 µM,0.998
same,relative viability,PC-3 [JPC-3]; first compound 0.2 µM,0.956
same,relative viability,PC-3 [JPC-3]; first compound 0.6325 µM,0.876
same,relative viability,PC-3 [JPC-3]; first compound 2 µM,0.53
same,relative viability,NCI-H596; first compound 0.02 µM,0.459
same,relative viability,NCI-H596; first compound 0.2 µM,0.424
same,relative viability,NCI-H596; first compound 0.6325 µM,0.448
same,relative viability,NCI-H596; first compound 2 µM,0.403
